In patent publication US20220313693A1, “METHODS OF TREATING HIV IN PEDIATRIC PATIENTS WITH RILPIVIRINE” (priority 2019, published 2022):
Where two headings read alike, the source gives them in different places.

Key:
clinical = conditions: human, in vivo, 25 mg, mean ± SD, RPV 25 mg qd multiple dose; for AUC(0-t): AUC24h
[1] = Intensive PK assessment of RPV at steady state, Phase II open-label trial in ARV-naive HIV-1 infected adolescents and children; conditions: RPV 25 mg qd multiple dose
[2] = Adults, pooled ECHO/THRIVE, RPV 25 mg qd, N=44; cited from earlier work
[3] = adult and pediatric participants receiving abacavir in clinical studies; cited from earlier work
[4] = Adolescents (Cohort 1, ≥12 to <18 years), N=23
[5] = Children ≥6-<12 years (Cohort 2), all bodyweights, N=10, preliminary analysis
[6] = Children ≥6-<12 years (Cohort 2), ≥25 kg only, N=5, preliminary analysis

Cc1cc(/C=C/C#N)cc(C)c1Nc1ccnc(Nc2ccc(C#N)cc2)n1 [RPV, Rilpivirine]
AUC(0-t) (clinical; [4]): 1870 ± 717 ng·h/mL | AUC(0-t) (clinical; [5]): 3020 ± 1610 ng·h/mL | AUC(0-t) (clinical; [6]): 2450 ± 735 ng·h/mL | Cmax (clinical; [5]): 182 ± 110 ng/mL | Cmax (clinical; [6]): 136 ± 46.1 ng/mL | C0h (predose plasma concentration), mean ± SD [1, 4]: 80.8 ± 40.4 ng/mL | Cmin, mean ± SD [1, 4]: 57.1 ± 26.3 ng/mL | tmax, median [range] [1, 4]: 5.00 (2.00-9.03) h | C0h (predose plasma concentration), mean ± SD [1, 5]: 118 ± 61.5 ng/mL | Cmin, mean ± SD [1, 5]: 77 ± 38.4 ng/mL | C0h (predose plasma concentration), mean ± SD [1, 6]: 104 ± 57 ng/mL | Cmin, mean ± SD [1, 6]: 74 ± 29.7 ng/mL | tmax, median [range] [1, 6]: 4.00 (1.97-9.00) h | AUC24h, mean ± SD [2]: 2005 ± 970 ng·h/mL | C0h (predose plasma concentration), mean ± SD [2]: 67.6 ± 39.0 ng/mL | Cmax, mean ± SD [2]: 134 ± 72.0 ng/mL | Cmin, mean ± SD [2]: 53.7 ± 28.3 ng/mL

Nc1nc(NC2CC2)c2ncn([C@H]3C=C[C@@H](CO)C3)c2n1 [abacavir]
Participants with hypersensitivity reactions [3]: approximately 5%
